Source: PMC9816242, “Human metabolism and excretion kinetics of benzotriazole UV stabilizer UV-327 after single oral administration” (Archives of Toxicology, 2022)

Key:
[1] = clinical; conditions: for form present in urine (conjugated/unconjugated): urine processed with and without enzymatic hydrolysis; for relative urinary share of the amount recovered within 72 h: % of the dose recovered in urine within 72 h; for t1/2 (elimination half-life, renal excretion): from mean excretion curves
Procedure: Enzymatic hydrolysis was performed at 37 °C for 16 h using β-glucuronidase/arylsulfatase from H. pomatia. The analytes and internal standards were extracted by dispersive liquid–liquid microextraction (DLLME) with isopropanol and chloroform. […] The urinary creatinine content was determined photometrically by the Jaffé’s method (Larsen [1972]).
Renal excretion rates (RE, in µg/h) of each analyte at a certain point in time were calculated by the following equation: RE=ci×vi/ti-ti-1
where ci (in µg/l) is the concentration of UV-327 or its metabolites in the urine sample i, vi (in l) is the volume of the respective urine sample, ti (in h) is the elapsed time value of the sampling, and ti−1 (in h) is the elapsed time value of the previous sampling.
Renal excretion kinetics of UV-327 and its metabolites were plotted as temporal progressions of the renal excretion rates RE at the midpoint of the respective sampling periods (ti,m in h), which were calculated as follows: ti,m=ti-1+ti-ti-1/2
Excretion curves were prepared for each study participant and each analyte by plotting the current excretion rates against the average time of the sampling period. Mean excretion curves were then obtained by averaging the closest sampling time points and the corresponding renal excretion rates for all study participants (mean ± standard deviation (SD)). The slopes (kel, elimination rate constant) of the ln-transformed mean excretion curves were used to calculate the elimination half-lives (t1/2) as follows: t1/2=ln(2)/kel
By summing the molar excreted amounts of UV-327 and its metabolites, the cumulative excreted amount of each analyte (in µmol) was calculated for each study participant: ∑i=0nci×vi/M
Furthermore, urinary excretion factors (FUE) as UV-327 dose equivalents (as percentages) were calculated to express the total excretion of UV-327 and its metabolites in urine after 24 h, 48 h, and 72 h: FUE=CEi/MD×100
CEi is the amount of the respective analyte excreted after 24 h, 48 h, and 72 h (in µmol) and MD is the ingested amount of UV-327 (in µmol).
The shares of conjugation of UV-327 and its metabolites were determined by correlation of the urinary excretion rates obtained with and without the performance of enzymatic hydrolysis. The slope of the linear fit describes the percentage of the unconjugated form of the respective analyte.

[2] = UV-327 and metabolites in plasma of one volunteer after single oral administration of UV-327; conditions: n = 1; AUC plasma / AUC blood per method
Procedure: (§1) For the determination of potential background exposure, one blood and one urine sample of each participant were collected prior to the oral administration of UV-327. 14–29 mg of UV-327 were weighed directly onto a small piece of bread with butter, which was then consumed by the volunteers. Samples of urine and blood were then collected up to 72 h post-application. The participants collected all urine voids in separate containers. The sampling times and volumes of each sample were recorded. The urine samples were aliquoted and stored at − 50 °C until analysis. 9 ml of blood were drawn from peripheral veins at 2 h, 4 h, 6 h, 8 h, 10 h, 24 h, 34 h, 48 h, and 72 h after exposure and collected in EDTA-Monovettes®. […] Both blood and plasma samples were stored at − 50 °C until analysis.
(§2) Stock solutions of each analyte and internal standard (200 mg/l) were prepared in acetone. For calibration, an analyte spiking solution was prepared in a mixture of acetonitrile and aqueous 0.9% NaCl solution (v/v, 1:1), which contained 500 µg/l of each metabolite. For the determination of UV-327, two analyte spiking solutions were prepared, containing 2 mg/l or 40 mg/l of UV-327 in a mixture of acetonitrile and 0.9% NaCl solution (v/v, 1:1). The internal standard spiking solution contained 20 mg/l of D20-UV-327 and 1 mg/l each of D6-UV-327-4-mcx, D6-UV-327-4-mOH, D12-UV-327-4 + 6-diOH, and D6-UV-327-4-mOH-6-mcx. For derivatization, a solution containing 5% (v/v) TSIM in toluene was freshly prepared for each analytical run. Calibration standards were prepared by spiking human plasma with various volumes of the analyte spiking solutions. An eight-point calibration curve in the range of 0.5–25 µg/l was applied for the determination of the metabolites, except for UV-327-4-mOH-6-mcx, for which the calibration range was set to 2–100 µg/l due to higher limits of detection and quantitation. For the determination of UV-327, a nine-point calibration curve in the range of 10–2000 µg/l was applied. A reagent blank sample, containing water instead of plasma, was included in each analytical run. […]

[3] = UV-327 and metabolites in whole blood of volunteers after single oral administration of UV-327; conditions: for share of the total amount of all analytes at the time point of maximum concentration: blood, UV-327 equivalents at cmax; for time after which mean blood level was below LOD / cmax (maximum blood level): whole blood; for time after which mean blood level was below LOD: single oral 0.3 mg/kg UV-327; for cmax (maximum blood level): single oral 0.3 mg/kg body weight UV-327, n = 3, mean ± SD
Procedure: (§3) The administered dose of UV-327 was calculated with respect to an adequate distance from the no observed adverse effect level (NOAEL) determined in toxicological studies. […] As a result, 0.3 mg of UV-327/kg body weight was administered to each participant.
(§4) For the determination of potential background exposure, one blood and one urine sample of each participant were collected prior to the oral administration of UV-327. 14–29 mg of UV-327 were weighed directly onto a small piece of bread with butter, which was then consumed by the volunteers. Samples of urine and blood were then collected up to 72 h post-application. The participants collected all urine voids in separate containers. The sampling times and volumes of each sample were recorded. The urine samples were aliquoted and stored at − 50 °C until analysis. 9 ml of blood were drawn from peripheral veins at 2 h, 4 h, 6 h, 8 h, 10 h, 24 h, 34 h, 48 h, and 72 h after exposure and collected in EDTA-Monovettes®. Additional blood samples were collected from one subject 14 h, 28 h, and 58 h after exposure. This study participant donated two blood samples at each point in time; one blood sample was centrifuged to obtain plasma samples. Both blood and plasma samples were stored at − 50 °C until analysis.
(§5) Whole blood samples were prepared, processed, and analyzed according to a previously published method (Fischer and Göen [2022]). Proteins and cellular components were precipitated by the addition of acetonitrile. After centrifugation, the supernatants were diluted with water and ammonium acetate buffer. For analyte extraction, chloroform was added. The extracts were evaporated to dryness, followed by the addition of toluene and derivatization with both BSA/TCMS and TSIM. LODs ranged from 0.02 to 0.36 µg/l. […] Mean relative recovery rates ranged from 91% to 118%.
(§6) The blood samples of one study participant were additionally processed with the addition of β-glucuronidase/arylsulfatase from H. pomatia and incubation at 37 °C for 16 h to examine potential conjugation of UV-327 and its metabolites to glucuronide/sulfate.
(§7) A TRACE 1310 gas-chromatographic system equipped with a TriPlus RSH autosampler and a split/splitless injector was used for the analysis of the urine, blood, and plasma samples. The gas-chromatographic system was coupled to a TSQ 9000 triple–quadrupole mass spectrometer equipped with an advanced electron ionization (AEI) source (Thermo Fisher Scientific Inc., Waltham, USA). Chromatographic separation was performed on a (5% phenyl)-methylpolysiloxane low-bleed capillary column (HP-5msUI, 60 m × 250 µm × 0.25 µm, Agilent Technologies, Inc., Santa Clara, USA) at a constant flow rate of 1 ml/min using helium as a carrier gas. Total analysis time was 44 min. The GC–MS/MS equipment and parameter-specific settings were used as described in earlier publications for the analysis of urine (Fischer and Göen [2021]) and blood samples (Fischer and Göen [2022]). Plasma samples were analyzed using the same parameter-specific settings as for the analysis of blood samples.
(§8) Mean concentration–time curves in blood were obtained by plotting the mean blood levels against time. The elimination half-lives (t1/2) were calculated as described above. […] For this purpose, UV-327 equivalents (as percentages) were calculated as follows: ∑i=0ncmax/M×MUV-327×100

[4] = clinical; conditions: both, human, whole blood, po, 0.3 mg/kg
Procedure: as §3, §4, §5, §6, §7, §8

[5] = system: rats; conditions: especially male, ref Ema et al. [2008]; cited from earlier work
[6] = system: rats; conditions: ref Ema et al. [2008]; cited from earlier work
[7] = system: thyroid hormone receptors; design: method as in Nagayoshi et al. [2015]; conditions: ref Nagayoshi et al. [2015]; cited from earlier work
[8] = system: beagle dogs; conditions: 90-day feeding study, ref CIBA AG [1970]; cited from earlier work
[9] = system: rats; conditions: ref Ema et al. [2006]; cited from earlier work
[10] = clinical; conditions: human, plasma, po, 0.3 mg/kg
Procedure: as §1, §2

[11] = system: human androgen receptor; design: method as in Fent et al. [2014]; Sakuragi et al. [2021]; conditions: ref Fent et al. [2014]; Sakuragi et al. [2021]; cited from earlier work
[12] = in vitro; ref Fischer et al. [2020]; cited from earlier work
[13] = design: method as in Cantwell et al. [2015]; conditions: ref Cantwell et al. [2015]; cited from earlier work
[14] = system: human estrogen receptor; design: method as in Fent et al. [2014]; Sakuragi et al. [2021]; conditions: ref Fent et al. [2014]; Sakuragi et al. [2021]; cited from earlier work
[15] = system: human serum albumin; design: method as in Zhuang et al. [2016]; conditions: ref Zhuang et al. [2016]; cited from earlier work
[16] = in vivo, po; cited from earlier work
[17] = design: method as in Sommer et al. [2020]; conditions: oral administration, ref Sommer et al. [2020]; cited from earlier work
[18] = urine of one participant, with vs without enzymatic hydrolysis
[19] = urine up to 72 h, n = 3, mean ± SD
[20] = both, human, in vivo, po, 0.3 mg/kg

2-(5-chloro-benzotriazol-2-yl)-4-(1-hydroxy-2-methylpropyl)-6-(tert-butyl)phenol [UV-327-4-mOH]
FUE after 24 h (urinary excretion factor) ([1]; human, in vivo): 0.0016 ± 0.0004% | FUE after 48 h (urinary excretion factor) ([1]; human, in vivo): 0.0022 ± 0.0007% | FUE after 72 h (urinary excretion factor) ([1]; human, in vivo): 0.0026 ± 0.0011% | REmax (maximum renal excretion rate) ([1]; human, in vivo, po, 0.3 mg/kg): 0.032 ± 0.012 µg/h | tmax (time point of maximum renal excretion rate) ([1]; human, in vivo, po, 0.3 mg/kg): 13.5 ± 0.05 h | Share of conjugation [1, 18]: 100% | form present in urine (conjugated/unconjugated) [1]: only present in their conjugated forms | Cumulative excreted amount [1, 19]: 0.0016 ± 0.0009 µmol | relative urinary share of the amount recovered within 72 h ([1]; urine): 9.2% | t1/2 (elimination half-life, renal excretion) ([1]; urine, n = 3): 26.7 h | plasma to blood ratio [2]: 1.5 to 1.6 | share of the total amount of all analytes at the time point of maximum concentration [3]: 0.04% | time after which mean blood level was below LOD [3]: 72 h | cmax (maximum blood level) [3]: 0.26 ± 0.10 µg/L

2-(5-chloro-benzotriazol-2-yl)-4,6-di-(1-hydroxy-2-methylpropyl)phenol [UV-327-4 + 6-diOH]
FUE after 24 h (urinary excretion factor) ([1]; human, in vivo): 0.0104 ± 0.0022% | FUE after 48 h (urinary excretion factor) ([1]; human, in vivo): 0.0156 ± 0.0027% | FUE after 72 h (urinary excretion factor) ([1]; human, in vivo): 0.018% | REmax (maximum renal excretion rate) ([1]; human, in vivo, po, 0.3 mg/kg): 0.214 ± 0.058 µg/h | tmax (time point of maximum renal excretion rate) ([1]; human, in vivo, po, 0.3 mg/kg): 10.6 ± 0.08 h | Share of conjugation [1, 18]: 100% | form present in urine (conjugated/unconjugated) [1]: only present in their conjugated forms | Cumulative excreted amount [1, 19]: 0.0121 ± 0.0051 µmol | FUE after 72 h (urinary excretion factor) ([1]; urine, % of ingested UV-327 dose, 72 h, n = 3, mean ± SD): 0.0183 ± 0.0030% | relative urinary share of the amount recovered within 72 h ([1]; urine): 64.5% | t1/2 (elimination half-life, renal excretion) ([1]; urine, n = 3): 33.0 h | detection in blood ([3]; blood samples up to 72 h post-exposure): not detected in blood

2-(5-chloro-benzotriazol-2-yl)-6-(1-hydroxy-2-methylpropyl)-4-(tert-butyl)phenol [UV-327-6-mOH]
FUE after 24 h (urinary excretion factor) ([1]; human, in vivo): 0.0034 ± 0.0006% | FUE after 48 h (urinary excretion factor) ([1]; human, in vivo): 0.0046 ± 0.0010% | FUE after 72 h (urinary excretion factor) ([1]; human, in vivo): 0.0049 ± 0.0013% | REmax (maximum renal excretion rate) ([1]; human, in vivo, po, 0.3 mg/kg): 0.068 ± 0.06 µg/h | tmax (time point of maximum renal excretion rate) ([1]; human, in vivo, po, 0.3 mg/kg): 8.7 ± 0.21 h | Share of conjugation [1, 18]: 100% | form present in urine (conjugated/unconjugated) [1]: only present in their conjugated forms | Cumulative excreted amount [1, 19]: 0.0030 ± 0.0011 µmol | relative urinary share of the amount recovered within 72 h ([1]; urine): 17.2% | t1/2 (elimination half-life, renal excretion) ([1]; urine, n = 3): 13.9 h | plasma to blood ratio [2]: 1.5 to 1.6 | share of the total amount of all analytes at the time point of maximum concentration [3]: 0.04% | time after which mean blood level was below LOD [3]: 48 h | cmax (maximum blood level) [3]: 0.27 ± 0.10 µg/L

CC(C)(C)c1cc(-n2nc3ccc(Cl)cc3n2)c(O)c(C(C)(C)C)c1 [UV-327, 2-(5-chloro-benzotriazol-2-yl)-4,6-di-(tert-butyl)phenol]
Cmax [4]: 632 ± 114 ng/mL | Tmax [4]: 6 h | concentration at 24 h [4]: 103 ± 24 ng/mL | concentration at 72 h [4]: 27 ± 5 ng/mL | liver findings after repeated oral administration [5]: increased liver weights, histopathological changes in hepatic tissue, and alterations in liver-specific blood parameters | reproductive toxicity [6]: did not cause reproductive | activity against thyroid hormone receptors [7]: no activity | NOAEL [8]: 30 mg/kg/day | oral LD50 [9]: > 5000 mg/kg body weight | Tmax [10]: 6 h | Cumulative excreted amount ([1]; both, human, in vivo): 0.0016 ± 0.0007 µmol | FUE after 24 h (urinary excretion factor) ([1]; both, human, in vivo): 0.0015 ± 0.0004% | FUE after 48 h (urinary excretion factor) ([1]; both, human, in vivo): 0.0023 ± 0.0007% | FUE after 72 h (urinary excretion factor) ([1]; both, human, in vivo): 0.0026 ± 0.0009% | half-life ([1]; both, human, in vivo): 18.2 h | share of the total 72 h urinary amount (UV-327 and its metabolites) excreted within 24 h ([1]; both, human, in vivo): 61% | share of the total 72 h urinary amount (UV-327 and its metabolites) excreted within 48 h ([1]; both, human, in vivo): 88% | REmax (maximum renal excretion rate) [1, 20]: 0.026 ± 0.007 µg/h | Tmax [1, 20]: 13.5 ± 0.05 h | Share of conjugation ([1]; human, in vivo): 16% | unconjugated form in urine ([1]; human, in vivo): 84% | relative urinary share of the amount recovered within 72 h ([1]; urine): 9.0% | activity against human androgen receptor [11]: no activity | conjugation in blood (with vs without enzymatic hydrolysis) ([3]; blood of one participant, β-glucuronidase/arylsulfatase): not present as conjugates in blood | share of the total amount of all analytes at the time point of maximum concentration [3]: 99.9% | extent of metabolism in human liver microsomes [12]: only moderately metabolized | Log Kow [13]: 6.75 | activity against human estrogen receptor [14]: no activity | binding to human serum albumin [15]: found to bind to human serum albumin by forming hydrogen bonds

CCCOC(=O)c1ccc(O)cc1 [propyl paraben]
time to maximum serum level [16]: 1.4 ± 1.1 h

CN(C)CCc1ccc(O)cc1 [N,N-dimethyltyramine]
time to plasma peak level [17]: 30 to 90 min
